Results published in ChEMBL document CHEMBL1201862, “PubChem BioAssay data set” (2004).
The source made the active and inactive calls.

Key:
[1] = viability of uninfected HEp-2 cells – cell-based, HTS, cytotoxicity control for RSV inhibitor project, dose response (AID 2410); assay type: functional; details: human respiratory syncytial virus
Vero = assay: cells; assay type: functional, cell-based; details: Chlorocebus sabaeus
Prothrombin = Prothrombin (Homo sapiens, UniProt P00734); assay: Thrombin 1536 HTS Dose Response Confirmation. [Related pubchem assays: 1046 (Thrombin 1536 HTS; hits were confirmed in this assay)]; assay type: functional
Mucolipin-3 = molecular target: T1, Mucolipin-3 (Homo sapiens, UniProt Q8TDD5); assay: Dose response cell-based high-throughput screening assay for agonists of the transient receptor potential channel ML3 (TRPML3). [Related pubchem assays: 1526, 1424, 1448 ]; assay type: functional
T1 sequence (Q8TDD5 whole entry): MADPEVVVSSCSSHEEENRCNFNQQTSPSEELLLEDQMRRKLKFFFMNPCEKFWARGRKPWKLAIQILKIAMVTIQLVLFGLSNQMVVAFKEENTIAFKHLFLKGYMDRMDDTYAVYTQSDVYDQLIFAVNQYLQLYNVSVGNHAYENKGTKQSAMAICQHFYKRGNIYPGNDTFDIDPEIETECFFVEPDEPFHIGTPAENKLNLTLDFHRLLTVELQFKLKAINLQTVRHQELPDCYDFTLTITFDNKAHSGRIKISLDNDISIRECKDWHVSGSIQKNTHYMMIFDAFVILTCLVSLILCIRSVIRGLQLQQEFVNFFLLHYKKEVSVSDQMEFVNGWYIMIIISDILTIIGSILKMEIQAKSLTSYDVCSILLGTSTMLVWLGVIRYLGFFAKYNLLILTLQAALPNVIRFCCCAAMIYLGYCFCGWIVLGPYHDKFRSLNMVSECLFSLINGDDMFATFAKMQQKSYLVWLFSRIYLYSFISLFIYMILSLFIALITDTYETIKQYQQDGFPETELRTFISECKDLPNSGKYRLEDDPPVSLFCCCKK

Ion channel NompC = Ion channel NompC (Danio rerio, UniProt Q7T1G6); assay: Fluorescence counterscreen assay for TRPML3 agonists: dose response cell-based high-throughput screening assay to identify agonists of the transient receptor potential channel N1 (TRPN1). [Related pubchem assays: 1526, 1424, 1448 ]; assay type: functional
[2] = viability inhibitors of stage V gametocytes – luminescence, dose response (AID 1117278); assay type: functional, cell-based;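 also: gametocytes exposed to compound for 24 hours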
[3] = viability loss in human Jurkat cells – cell-based, luminescence, cytotoxicity control for P. falciparum gametocyte viability project, dose response (AID 1117277); assay type: functional;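 also: potency reflects loss of cellular ATP meaning fewer viable cells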
[4] = HPDE-C7 pancreatic duct cell viability loss – fluorescence, HTS (AID 430); assay type: functional, cell-based; details: Homo sapiens
[5] = viability loss of HPDE-C7K cells – cell-based, fluorescence, HTS, primary screen (AID 431); assay type: functional; details: Homo sapiens
[6] = molecular target: Eukaryotic translation initiation factor 4E (Mus musculus, UniProt P63073); assay: blockers of eIF4G binding by eIF4E – biochemical, TR-FRET, dose response (AID 855); assay type: functional;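 also: potency for disrupting eIF4E binding to eIF4GI seen as loss of FRET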
[7] = molecular target: T2, Voltage-gated N-type calcium channel alpha-1B subunit/Amyloid beta A4 precursor protein-binding family A member 1 (Homo sapiens, UniProt Q00975+Q02410); assay type: protein assay
[8] = molecular target: T2, Voltage-gated N-type calcium channel alpha-1B subunit/Amyloid beta A4 precursor protein-binding family A member 1; assay type: protein assay; remark: listed apart in the source
[9] = A cytotoxicity screen of small molecule inhibitors of the PhoP region in Salmonella typhi identified in the primary screen. [Related pubchem assays: 1850, 1864, 1985 ]; assay type: functional

Ion channel NompC, sequence (Q7T1G6 whole entry): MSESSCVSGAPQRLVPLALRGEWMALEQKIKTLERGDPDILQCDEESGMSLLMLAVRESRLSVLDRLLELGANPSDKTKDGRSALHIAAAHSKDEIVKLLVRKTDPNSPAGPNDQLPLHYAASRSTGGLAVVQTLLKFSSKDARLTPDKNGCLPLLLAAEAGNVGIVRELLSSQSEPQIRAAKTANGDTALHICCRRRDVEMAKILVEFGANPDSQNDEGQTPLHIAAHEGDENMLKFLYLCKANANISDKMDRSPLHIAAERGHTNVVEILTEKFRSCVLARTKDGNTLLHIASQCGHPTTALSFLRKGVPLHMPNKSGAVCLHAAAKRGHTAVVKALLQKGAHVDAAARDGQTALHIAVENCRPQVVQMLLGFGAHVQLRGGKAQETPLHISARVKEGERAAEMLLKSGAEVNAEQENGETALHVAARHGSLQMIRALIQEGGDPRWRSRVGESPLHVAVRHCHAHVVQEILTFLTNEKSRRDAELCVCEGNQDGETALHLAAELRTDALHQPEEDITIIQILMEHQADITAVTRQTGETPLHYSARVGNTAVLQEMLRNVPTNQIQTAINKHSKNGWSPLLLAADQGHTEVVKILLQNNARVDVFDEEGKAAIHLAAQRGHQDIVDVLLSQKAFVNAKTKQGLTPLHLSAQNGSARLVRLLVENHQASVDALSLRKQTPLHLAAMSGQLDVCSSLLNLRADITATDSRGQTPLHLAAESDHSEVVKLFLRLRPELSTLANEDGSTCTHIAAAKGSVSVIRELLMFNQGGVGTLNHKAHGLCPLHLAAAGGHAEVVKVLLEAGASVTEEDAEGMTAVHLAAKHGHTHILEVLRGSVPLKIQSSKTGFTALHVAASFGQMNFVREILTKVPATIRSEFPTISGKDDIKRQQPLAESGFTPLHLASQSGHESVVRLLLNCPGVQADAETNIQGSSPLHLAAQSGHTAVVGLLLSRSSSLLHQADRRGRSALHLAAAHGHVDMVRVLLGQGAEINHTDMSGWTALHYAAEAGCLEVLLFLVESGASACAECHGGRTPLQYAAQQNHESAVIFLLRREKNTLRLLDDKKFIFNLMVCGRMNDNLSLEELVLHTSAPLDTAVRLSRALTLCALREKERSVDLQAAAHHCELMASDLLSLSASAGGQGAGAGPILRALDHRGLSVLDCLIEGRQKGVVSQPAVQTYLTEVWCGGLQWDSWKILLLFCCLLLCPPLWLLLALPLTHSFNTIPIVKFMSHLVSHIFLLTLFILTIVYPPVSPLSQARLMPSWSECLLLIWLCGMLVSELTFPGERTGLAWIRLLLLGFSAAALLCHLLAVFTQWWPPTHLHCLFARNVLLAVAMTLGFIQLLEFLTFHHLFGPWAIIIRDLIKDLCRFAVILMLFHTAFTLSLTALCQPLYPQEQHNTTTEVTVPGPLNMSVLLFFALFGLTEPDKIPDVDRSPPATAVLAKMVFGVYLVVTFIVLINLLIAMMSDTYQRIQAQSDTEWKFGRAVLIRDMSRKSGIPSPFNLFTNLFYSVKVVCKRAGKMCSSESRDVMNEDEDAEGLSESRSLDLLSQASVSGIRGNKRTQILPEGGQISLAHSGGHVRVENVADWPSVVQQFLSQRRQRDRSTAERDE
T2 sequence (Q00975 whole entry): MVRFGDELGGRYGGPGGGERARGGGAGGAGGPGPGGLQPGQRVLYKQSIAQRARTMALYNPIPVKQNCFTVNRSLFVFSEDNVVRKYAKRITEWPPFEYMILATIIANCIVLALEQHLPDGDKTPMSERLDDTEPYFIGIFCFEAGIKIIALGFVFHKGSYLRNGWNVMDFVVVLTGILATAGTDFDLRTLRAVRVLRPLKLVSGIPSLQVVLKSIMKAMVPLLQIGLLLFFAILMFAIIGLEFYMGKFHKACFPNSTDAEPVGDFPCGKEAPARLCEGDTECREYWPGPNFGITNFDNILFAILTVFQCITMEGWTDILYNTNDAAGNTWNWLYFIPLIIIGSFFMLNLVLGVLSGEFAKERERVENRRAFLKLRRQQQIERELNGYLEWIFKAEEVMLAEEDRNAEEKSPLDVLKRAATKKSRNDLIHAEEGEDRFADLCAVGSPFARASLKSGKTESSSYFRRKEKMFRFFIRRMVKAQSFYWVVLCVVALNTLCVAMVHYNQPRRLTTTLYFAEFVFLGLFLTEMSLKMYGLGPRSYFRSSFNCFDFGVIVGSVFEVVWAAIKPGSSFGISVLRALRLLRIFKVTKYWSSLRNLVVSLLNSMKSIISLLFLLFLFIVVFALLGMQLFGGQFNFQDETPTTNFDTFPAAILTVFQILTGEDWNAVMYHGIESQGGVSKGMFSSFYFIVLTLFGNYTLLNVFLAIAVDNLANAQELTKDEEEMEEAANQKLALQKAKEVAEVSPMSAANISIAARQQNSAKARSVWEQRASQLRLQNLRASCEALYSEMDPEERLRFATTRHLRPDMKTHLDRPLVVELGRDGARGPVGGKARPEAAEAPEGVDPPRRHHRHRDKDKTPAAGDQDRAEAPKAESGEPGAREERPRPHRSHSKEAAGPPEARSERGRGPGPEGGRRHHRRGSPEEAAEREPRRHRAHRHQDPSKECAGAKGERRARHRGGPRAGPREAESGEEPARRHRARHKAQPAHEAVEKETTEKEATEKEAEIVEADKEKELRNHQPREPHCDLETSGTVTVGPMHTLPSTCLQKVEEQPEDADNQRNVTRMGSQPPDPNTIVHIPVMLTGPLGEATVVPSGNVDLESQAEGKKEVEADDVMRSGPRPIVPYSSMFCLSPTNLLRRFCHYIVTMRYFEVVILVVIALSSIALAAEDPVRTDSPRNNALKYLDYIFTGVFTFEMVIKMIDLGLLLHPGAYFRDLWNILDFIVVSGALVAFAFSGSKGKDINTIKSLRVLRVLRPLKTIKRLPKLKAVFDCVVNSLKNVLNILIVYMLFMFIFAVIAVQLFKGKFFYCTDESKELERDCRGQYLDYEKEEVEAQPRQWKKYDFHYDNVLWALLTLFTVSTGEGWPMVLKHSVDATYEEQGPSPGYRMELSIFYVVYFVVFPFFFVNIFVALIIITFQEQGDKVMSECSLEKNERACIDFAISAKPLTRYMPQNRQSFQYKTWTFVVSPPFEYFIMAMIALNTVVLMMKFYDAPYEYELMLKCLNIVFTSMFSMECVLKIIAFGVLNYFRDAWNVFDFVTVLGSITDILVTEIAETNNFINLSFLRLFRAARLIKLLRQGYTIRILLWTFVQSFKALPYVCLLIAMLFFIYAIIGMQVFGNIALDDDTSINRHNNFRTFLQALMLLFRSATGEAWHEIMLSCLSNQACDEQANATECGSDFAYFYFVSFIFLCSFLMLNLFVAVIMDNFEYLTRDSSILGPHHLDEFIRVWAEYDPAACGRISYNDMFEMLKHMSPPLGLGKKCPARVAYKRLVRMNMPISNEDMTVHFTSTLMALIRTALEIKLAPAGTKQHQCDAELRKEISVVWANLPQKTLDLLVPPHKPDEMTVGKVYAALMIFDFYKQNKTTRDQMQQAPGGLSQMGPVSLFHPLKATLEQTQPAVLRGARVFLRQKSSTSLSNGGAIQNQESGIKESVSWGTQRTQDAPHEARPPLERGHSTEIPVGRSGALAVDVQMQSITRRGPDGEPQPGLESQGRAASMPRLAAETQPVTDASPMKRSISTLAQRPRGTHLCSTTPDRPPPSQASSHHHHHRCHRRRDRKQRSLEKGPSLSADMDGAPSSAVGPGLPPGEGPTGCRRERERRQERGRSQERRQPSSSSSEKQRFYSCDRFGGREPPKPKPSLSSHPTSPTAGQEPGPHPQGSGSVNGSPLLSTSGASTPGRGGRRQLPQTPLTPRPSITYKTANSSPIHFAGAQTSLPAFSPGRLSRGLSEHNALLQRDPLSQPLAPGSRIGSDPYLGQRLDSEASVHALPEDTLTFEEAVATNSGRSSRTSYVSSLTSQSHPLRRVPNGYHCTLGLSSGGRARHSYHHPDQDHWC
T2 sequence (Q02410 whole entry): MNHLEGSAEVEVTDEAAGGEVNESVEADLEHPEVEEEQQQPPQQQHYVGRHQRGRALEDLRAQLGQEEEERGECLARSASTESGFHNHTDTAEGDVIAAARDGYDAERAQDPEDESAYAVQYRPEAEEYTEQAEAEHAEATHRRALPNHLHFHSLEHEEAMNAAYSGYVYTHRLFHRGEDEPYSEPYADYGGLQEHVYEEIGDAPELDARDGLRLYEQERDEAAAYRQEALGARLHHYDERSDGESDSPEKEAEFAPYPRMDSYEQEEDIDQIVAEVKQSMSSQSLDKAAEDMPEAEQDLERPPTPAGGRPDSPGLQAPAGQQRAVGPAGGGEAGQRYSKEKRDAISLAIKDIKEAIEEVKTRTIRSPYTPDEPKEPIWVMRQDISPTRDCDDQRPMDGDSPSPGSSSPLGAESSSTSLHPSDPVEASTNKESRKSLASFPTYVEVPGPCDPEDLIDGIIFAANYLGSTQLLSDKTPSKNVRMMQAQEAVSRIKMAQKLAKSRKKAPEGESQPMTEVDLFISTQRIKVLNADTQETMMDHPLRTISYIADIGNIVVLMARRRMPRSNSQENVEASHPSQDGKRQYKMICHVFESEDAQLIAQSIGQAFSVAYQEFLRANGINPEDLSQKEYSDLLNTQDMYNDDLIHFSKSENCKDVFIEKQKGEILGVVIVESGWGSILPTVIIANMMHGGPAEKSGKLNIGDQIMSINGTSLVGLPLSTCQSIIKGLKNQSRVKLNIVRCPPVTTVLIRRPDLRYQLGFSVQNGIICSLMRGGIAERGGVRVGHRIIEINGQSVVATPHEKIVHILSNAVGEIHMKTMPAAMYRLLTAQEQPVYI
Eukaryotic translation initiation factor 4E, sequence (P63073 whole entry): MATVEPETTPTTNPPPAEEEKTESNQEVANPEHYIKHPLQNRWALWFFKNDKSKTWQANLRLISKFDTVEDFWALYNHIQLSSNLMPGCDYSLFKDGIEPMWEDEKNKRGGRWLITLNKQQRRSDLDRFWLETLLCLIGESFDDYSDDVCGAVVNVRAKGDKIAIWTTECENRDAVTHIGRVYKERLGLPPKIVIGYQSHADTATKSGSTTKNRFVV

O=C(NC(Cc1c[nH]c2ccccc12)C(=O)Nc1ccc(F)cc1)c1cccs1 (stereo unspecified)
CC50 [1]: 15.6 µM (active) | IC50 (Vero): 8.41 µM (active) | IC50 (cells): 12.8 µM (active)

Cc1ccc2c(c1)CC1(CN2C)C(=O)OC(C)(C)OC1=O
IC50 (Prothrombin): 1.69 µM (active)

O=C(CC(Nc1ccc(F)cc1)C(=O)OCC(=O)c1cccs1)c1ccccc1 (stereo unspecified)
IC50 (Prothrombin): 2.82 µM (active)

COc1ccc(S(=O)(=O)N(CC(=O)N2CCOCC2)c2cc(Cl)ccc2OC)cc1OC
EC50 (Mucolipin-3): 4.75 µM (active) | EC50 (Ion channel NompC): > 29.9 µM (not active)

Cc1ccccc1N1CCN(S(=O)(=O)c2ccccc2)CC1
EC50 (Mucolipin-3): 5.11 µM (active) | EC50 (Ion channel NompC): > 29.9 µM (not active)

O=C(c1ccco1)N1CCN(C(=O)C2c3ccccc3Oc3ccccc32)CC1
IC50 [2]: > 109 µM (inactive) | IC50 [3]: 64.4 µM (inactive)

CCCCOc1cccc(C(=O)Nc2ccc(N3CCN(CC)CC3)cc2)c1
EC50 [4]: > 20 µM (not active) | EC50 [5]: > 20 µM (not active)

CCn1c(C)c(C(C)=O)c(N2CCN(C(=O)c3ccco3)CC2)nc1=S
IC50 [6]: > 64 µM (inactive)

Cc1cc(C)c(C2=NOC3C4CCC(C4)C23)c(C)c1 (stereo unspecified)
EC50 (Mucolipin-3): 1.77 µM (active) | EC50 (Ion channel NompC): > 29.9 µM (not active)

Cc1cc(C)nc(NC(=S)Nc2cccc(Cl)c2Cl)c1
IC50 [7]: 1.27 µM (active) | IC50 [8]: > 50 µM (inactive)

CN(C1CCS(=O)(=O)C1)S(=O)(=O)c1ccccc1 (stereo unspecified)
IC50 [2]: > 109 µM (inactive) | IC50 [3]: > 83.3 µM (inactive)

CC(C)(C)c1ccc(C(=O)NNC(=O)Cc2ccccc2)cc1
EC50 [9]: > 50 µM (active)
